What was measured:
Format in all cases: functional
[1] = test system: Thanatephorus cucumeris; experiment: Fungicidal activity against Thanatephorus cucumeris assessed as rice sheath blight disease control at 31.3 ppm foliar application for 24 hr before inoculation at 26 +- 2 measured after 5 days by preventive manner
[2] = test system: Thanatephorus cucumeris; experiment: Fungicidal activity against Thanatephorus cucumeris assessed as rice sheath blight disease control at 7.8 ppm foliar application for 24 hr before inoculation at 26 +- 2 measured after 5 days by preventive manner
[3] = test system: Thanatephorus cucumeris; experiment: Fungicidal activity against Thanatephorus cucumeris assessed as rice sheath blight disease control at 2 ppm foliar application for 24 hr before inoculation at 26 +- 2 measured after 5 days by preventive manner
[4] = test system: Podosphaera fuliginea; experiment: Fungicidal activity against Podosphaera fuliginea assessed as cucumber powdery mildew control under greenhouse at 7.8 ppm foliar application 24 hr after inoculation on upper surface of leaf at 23 +/- 2 degC by curative manner
[5] = test system: Podosphaera fuliginea; experiment: Fungicidal activity against Podosphaera fuliginea assessed as cucumber powdery mildew control under greenhouse at 2 ppm foliar application 24 hr after inoculation on upper surface of leaf at 23 +/- 2 degC by curative manner
[6] = test system: Pyricularia oryzae; experiment: Fungicidal activity against Magnaporthe oryzae assessed as rice blast disease control at 10 ppm submerged application measured after 7 days
[7] = test system: Pyricularia oryzae; experiment: Fungicidal activity against Magnaporthe oryzae assessed as rice blast disease control at 2.5 ppm submerged application measured after 7 days
[8] = test system: Pyricularia oryzae; experiment: Fungicidal activity against Magnaporthe oryzae assessed as rice blast disease control at 0.63 ppm submerged application measured after 7 days
[9] = test system: Pyricularia oryzae; experiment: Fungicidal activity against Magnaporthe oryzae assessed as rice blast disease control at 0.16 ppm submerged application measured after 7 days
[10] = test system: Pseudoperonospora cubensis; experiment: Fungicidal activity against Pseudoperonospora cubensis assessed as cucumber downy mildew disease control at 125 ppm foliar application 24 hr before inoculation on upper surface of leaf by preventive manner
[11] = test system: Pseudoperonospora cubensis; experiment: Fungicidal activity against Pseudoperonospora cubensis assessed as cucumber downy mildew disease control at 31.3 ppm foliar application 24 hr before inoculation on upper surface of leaf by preventive manner
[12] = test system: Pseudoperonospora cubensis; experiment: Fungicidal activity against Pseudoperonospora cubensis assessed as cucumber downy mildew disease control at 7.8 ppm foliar application 24 hr before inoculation on upper surface of leaf by preventive manner
[13] = test system: Pseudoperonospora cubensis; experiment: Fungicidal activity against Pseudoperonospora cubensis assessed as cucumber downy mildew disease control at 2 ppm foliar application 24 hr before inoculation on upper surface of leaf by preventive manner
[14] = test system: Podosphaera fuliginea; experiment: Fungicidal activity against Podosphaera fuliginea assessed as cucumber powdery mildew control under greenhouse at 125 ppm foliar application 24 hr before inoculation on upper surface of leaf at 23 +/- 2 degC by preventive manner
[15] = test system: Podosphaera fuliginea; experiment: Fungicidal activity against Podosphaera fuliginea assessed as cucumber powdery mildew control under greenhouse at 31.3 ppm foliar application 24 hr before inoculation on upper surface of leaf at 23 +/- 2 degC by preventive manner
[16] = test system: Podosphaera fuliginea; experiment: Fungicidal activity against Podosphaera fuliginea assessed as cucumber powdery mildew control under greenhouse at 7.8 ppm foliar application 24 hr before inoculation on upper surface of leaf at 23 +/- 2 degC by preventive manner
[17] = test system: Podosphaera fuliginea; experiment: Fungicidal activity against Podosphaera fuliginea assessed as cucumber powdery mildew control under greenhouse at 2 ppm foliar application 24 hr before inoculation on upper surface of leaf at 23 +/- 2 degC by preventive manner
[18] = test system: Thanatephorus cucumeris; experiment: Fungicidal activity against Thanatephorus cucumeris assessed as rice sheath blight disease control at 125 ppm foliar application for 24 hr before inoculation at 26 +- 2 measured after 5 days by preventive manner
[19] = test system: Botrytis cinerea; experiment: Fungicidal activity against Botryotinia fuckeliana assessed as cucumber gray mold disease control at 31.3 ppm foliar application 24 hr after inoculation at 22 +/- 2 degC measured after 3 days by curative manner
[20] = test system: Botrytis cinerea; experiment: Fungicidal activity against Botryotinia fuckeliana assessed as cucumber gray mold disease control at 7.8 ppm foliar application 24 hr after inoculation at 22 +/- 2 degC measured after 3 days by curative manner
[21] = test system: Botrytis cinerea; experiment: Fungicidal activity against Botryotinia fuckeliana assessed as cucumber gray mold disease control at 2 ppm foliar application 24 hr after inoculation at 22 +/- 2 degC measured after 3 days by curative manner
[22] = test system: Podosphaera fuliginea; experiment: Fungicidal activity against Podosphaera fuliginea assessed as cucumber powdery mildew control under greenhouse at 125 ppm foliar application 24 hr after inoculation on upper surface of leaf at 23 +/- 2 degC by curative manner
[23] = test system: Podosphaera fuliginea; experiment: Fungicidal activity against Podosphaera fuliginea assessed as cucumber powdery mildew control under greenhouse at 31.3 ppm foliar application 24 hr after inoculation on upper surface of leaf at 23 +/- 2 degC by curative manner
[24] = test system: Pseudoperonospora cubensis; experiment: Fungicidal activity against Pseudoperonospora cubensis assessed as cucumber downy mildew disease control at 125 ppm foliar application 24 hr after inoculation on upper surface of leaf by curative manner
[25] = test system: Pseudoperonospora cubensis; experiment: Fungicidal activity against Pseudoperonospora cubensis assessed as cucumber downy mildew disease control at 31.3 ppm foliar application 24 hr after inoculation on upper surface of leaf by curative manner
[26] = test system: Pseudoperonospora cubensis; experiment: Fungicidal activity against Pseudoperonospora cubensis assessed as cucumber downy mildew disease control at 7.8 ppm foliar application 24 hr after inoculation on upper surface of leaf by curative manner
[27] = test system: Pseudoperonospora cubensis; experiment: Fungicidal activity against Pseudoperonospora cubensis assessed as cucumber downy mildew disease control at 2 ppm foliar application 24 hr after inoculation on upper surface of leaf by curative manner
[28] = test system: Botrytis cinerea; experiment: Fungicidal activity against Botryotinia fuckeliana assessed as cucumber gray mold disease control at 125 ppm foliar application 24 hr after inoculation at 22 +/- 2 degC measured after 3 days by curative manner

In the case of CNC(=O)/C(=N/OC)c1ccccc1Oc1cccc(Oc2ccccc2)c1, the Activity [1] is reported as 70%, the Activity [2] is reported as 70% and the Activity [3] is reported as 70%. It also gave an Activity [4] of 50%, an Activity [5] of 50% and an Activity [6] of 50%. For the same molecule, the Activity [7] was 50%, the Activity [8] was 50% and the Activity [9] was 50%. For the same molecule, the Activity [10] was 70%, the Activity [11] was 70% and the Activity [12] was 70%. The Activity [13] was 70%, the Activity [14] was 70% and the Activity [15] was 70%. The Activity [16] was 70%, the Activity [17] was 70% and the Activity [18] was 70%. For the same molecule, the Activity [19] was 50%, the Activity [20] was 50% and the Activity [21] was 50%. It also gave an Activity [22] of 50%, an Activity [23] of 50% and an Activity [24] of 50%. For the same molecule, the Activity [25] was 50%, the Activity [26] was 50% and the Activity [27] was 50%. The Activity [28] was 50%.
CNC(=O)/C(=N/OC)c1ccccc1Oc1cccc(C)c1 showed an Activity [1] of 70%, an Activity [2] of 70% and an Activity [3] of 70%. It also gave an Activity [4] of 50%, an Activity [5] of 50% and an Activity [6] of 50%. It also gave an Activity [7] of 50%, an Activity [8] of 50% and an Activity [9] of 50%. For the same molecule, the Activity [10] was 70%, the Activity [11] was 70% and the Activity [12] was 70%. The Activity [13] was 70%, the Activity [14] was 70% and the Activity [15] was 70%. It also gave an Activity [16] of 70%, an Activity [17] of 70% and an Activity [18] of 70%. For the same molecule, the Activity [19] was 50%, the Activity [20] was 50% and the Activity [21] was 50%. For the same molecule, the Activity [22] was 50%, the Activity [23] was 50% and the Activity [24] was 50%. The Activity [25] was 50%, the Activity [26] was 50% and the Activity [27] was 50%. The Activity [28] was 50%.
CNC(=O)/C(=N/OC)c1ccccc1Oc1ccc(Cl)c(Cl)c1 showed an Activity [1] of 70%, an Activity [2] of 70% and an Activity [3] of 70%. It also gave an Activity [4] of 50%, an Activity [5] of 50% and an Activity [6] of 50%. It also gave an Activity [7] of 50%, an Activity [8] of 50% and an Activity [9] of 50%. The Activity [10] was 70%, the Activity [11] was 70% and the Activity [12] was 70%. It also gave an Activity [13] of 70%, an Activity [14] of 70% and an Activity [15] of 70%. For the same molecule, the Activity [16] was 70%, the Activity [17] was 70% and the Activity [18] was 70%. The Activity [19] was 50%, the Activity [20] was 50% and the Activity [21] was 50%. For the same molecule, the Activity [22] was 50%, the Activity [23] was 50% and the Activity [24] was 50%. It also gave an Activity [25] of 50%, an Activity [26] of 50% and an Activity [27] of 50%. It also gave an Activity [28] of 50%.
C=CCOc1cccc(Oc2ccccc2/C(=N\OC)C(=O)NC)c1 was tested, and the Activity [1] was 70%, the Activity [2] was 70% and the Activity [3] was 70%. It also gave an Activity [4] of 50%, an Activity [5] of 50% and an Activity [6] of 50%. It also gave an Activity [7] of 50%, an Activity [8] of 50% and an Activity [9] of 50%. For the same molecule, the Activity [10] was 70%, the Activity [11] was 70% and the Activity [12] was 70%. The Activity [13] was 70%, the Activity [14] was 70% and the Activity [15] was 70%. For the same molecule, the Activity [16] was 70%, the Activity [17] was 70% and the Activity [18] was 70%. For the same molecule, the Activity [19] was 50%, the Activity [20] was 50% and the Activity [21] was 50%. It also gave an Activity [22] of 50%, an Activity [23] of 50% and an Activity [24] of 50%. The Activity [25] was 50%, the Activity [26] was 50% and the Activity [27] was 50%. It also gave an Activity [28] of 50%.

From ChEMBL document CHEMBL3045600, “Synthesis and Fungicidal Activities of Phenoxyphenyl Alkoxyiminoacetamide Derivatives” (J Pestic Sci, 1998)
